Experimental data: US10865222B2, “Neisseria gonorrhoeae therapeutic based on CMP-nonulosonate sugars” (priority 2014, dated 2020)
“Also recorded” adds a separate entry of the source.

What was measured:
N. gonorrhoeae F62 ΔIgtD [1] = type: cell-based; parameters: key to Serum resistance: high: >100% survival in 10% serum; low: >100% survival in 3.3% serum and <10% survival in 10% serum; details: for bacterial survival / serum resistance: all serum concentrations tested (10, 6.7, 3.3%), 30 μM; for serum resistance mediated by CMP-Neu5Ac: analogue 20, 2 or 0.2 μg/ml added 15 min after CMP-Neu5Ac 20 μg/ml, grown 2 h; for killing of bacteria made serum resistant by CMP-Neu5Ac: analogue added 120 min after CMP-Neu5Ac, data not shown; for Serum resistance: summary Table 1
Method: FIG. 2. […] N. gonorrhoeae F62 ΔIgtD was grown in media alone (no CMP-sialic acid added), or media that contained 20 μg/ml (˜30 μM) of each of the indicated CMP-nonulosonates. Resistance of bacteria to complement-dependent killing in the presence of 3.3%, 6.7% or 10% normal human serum (NHS) was measured in serum bactericidal assays.
FIG. 5. […] N. gonorrhoeae F62 ΔIgtD was suspended in media containing 20 μg/ml (˜30 μM) CMP-Neu5Ac. Following 15 min of incubation at 37° C., CMP-Neu5Ac9Az or CMP-Leg5Ac7Ac (at concentrations of 20, 2 or 0.2 μg/ml final) were added and bacteria were incubated for 2 h. Serum bactericidal assays were then performed using 3.3% (solid black bars) or 10% (hatched bars) NHS. Controls included bacteria in media that lacked any CMP-nonulosonate, or bacteria that were incubated in CMP-Neu5Ac only. Y-axis, % survival.
We next determined the effects of incorporation of the CMP salts of five structural analogues of Neu5Ac (Neu5Gc, Neu5Ac9Ac, Neu5Ac9Az, Neu5Gc8Me and Leg5Ac7Ac) on the ability of N. gonorrhoeae F62 ΔIgtD to resist complement-dependent killing by normal human serum at concentrations of 10, 6.7 or 3.3%. Bacteria were grown either in media alone, or media supplemented with 30 μM (˜20 μg/ml) of each of the CMP-nonulosonates.
The ability of two of the CMP-nonulosonates, CMP-Neu5Ac9Az and CMP-Leg5Ac7Ac, to counter the ability of CMP-Neu5Ac to enhance serum resistance of N. gonorrrhoeae was then examined. The analogues were added at concentrations of 20, 2 or 0.2 μg/ml to growth media 15 min after the addition of CMP-Neu5Ac (20 μg/ml) to F62 ΔIgtD.
Serum bactericidal assays were performed as described previously (11). Bacteria harvested from an overnight culture on chocolate agar plates were grown in liquid media containing the specified concentration of CMP-nonulosonate as specified for each experiment. Approximately 2000 CFU of F62 ΔIgtD were incubated with NHS (concentration specified for each experiment). The final reaction volumes were maintained at 150 μl. […]

N. gonorrhoeae F62 ΔIgtD [2] = experiment: Whole cell ELISA for Ab binding and complement component deposition; type: cell-based; details: for complement deposition (C3, C4 and fB) and Ig binding: 3.3% and 10% NHS; for Neu5Ac-mediated decrease in IgG binding and complement deposition (C4, C3, factor Bb): analogue 20, 2 or 0.2 μg/ml 15 min after CMP-Neu5Ac 20 μg/ml, 10% and 3.3% NHS
Method: FIG. 4. Complement C3 and C4 deposition on, and factor B binding to N. gonorrhoeae bearing nonulosonic acid analogues on LOS. N. gonorrhoeae F62 ΔIgtD was grown in media alone (open bars), or media supplemented with 20 μg/ml (˜30 μM) of each of the indicated CMP-nonulosonates. Bacteria were incubated with either 3.3% or 10% NHS at 37° C. for 10 min and IgG and IgM binding, and C3, C4 and factor B deposited on bacteria were measured by whole cell ELISA. Data with 3.3% and 10% NHS is shown by hatched and solid bars, respectively. Measurement of gonococcal H.8 lipoprotein antigen was performed to ensure similar bacterial capture to microtiter wells. The mean (SD) of triplicate observations is shown.
FIG. 6. CMP-Neu5Ac9Az and CMP-Leg5Ac7Ac interfere with inhibition of the classical and alternative pathways of complement mediated by CMP-Neu5Ac. N. gonorrhoeae F62 ΔIgtD was incubated with 20 μg/ml (˜30 μM) CMP-Neu5Ac, followed in 15 min by the addition of CMP-Neu5Ac9Az or CMP-Leg5Ac7Ac (at concentrations of 20, 2 or 0.2 μg/ml final) and bacteria were incubated for 2 h as described in FIG. 5. Bacteria were incubated in 10% NHS and Ab binding and complement deposition studies were carried out by ELISA as described in FIG. 4. The mean (SD) of two independent experiments is shown.
Binding of IgG and IgM to, and deposition of complement components C3, C4 and factor B on N. gonorrhoeae F62 ΔIgtD grown in the presence of the following CMP-nonulosonates was examined based on results of bactericidal assays and fH binding. […] N. gonorrhoeae F62 ΔIgtD with an unmodified (unsialylated) LNT LOS was used as the control serum sensitive strain. Experiments were carried out using serum concentrations of 10% and 3.3%, which represented the serum concentrations that produced discriminating phenotypes with Neu5Ac9Ac and Neu5Gc8Me.
To define the mechanism whereby Neu5Ac9Az and Leg5Ac7Ac blocked complement resistance by Neu5Ac, we studied Ab binding to, and complement component deposition on N. gonorrhoeae F62 ΔIgtD that was incubated with CMP-Neu5Ac (20 μg/ml), followed 15 min later with either CMP-Neu5Ac9Az or CMP-Leg5Ac7Ac at concentrations of 20, 2 or 0.2 μg/ml. Controls included bacteria grown in the absence of any CMP-nonulosonate, or bacteria grown in CMP-Neu5Ac alone.
C3 and C4 fragment deposition on, and factor B binding to bacteria were measured by whole cell ELISA as described previously (14, 15). Briefly, 2×10^8 organisms in HBSS^++ were incubated with NHS (at concentrations of 3.3% or 10%) in a reaction volume of 100 μl for 10 min at 37° C. This time point was chosen based on the kinetics of complement deposition on gonococci in previously published data (15). Reactions were stopped after 10 min by washing three times with ice-cold HBSS containing 5 mM phenylmethylsulfonyl fluoride at 4° C. Organisms were resuspended in 200 μl of the same buffer, and 50 μl of each sample applied per well of a 96-well U-bottomed polystyrene microtiter plate (Dynatech Laboratories, Inc., Chantilly, Va.) and incubated for 3 h at 37° C. Plates were washed with PBS containing 0.05% Tween 20. Primary antibodies (polyclonal goat anti-human C3, C4 and factor B) were diluted in PBS, and secondary antibodies diluted in PBS-0.05% Tween 20 prior to use. To ensure similar capture of bacteria incubated under different conditions, the amount of gonococcal H.8 antigen (16) expression using MAb 2-8C-4-1 (13), followed by anti-mouse IgG-alkaline phosphatase conjugate, was measured.

[3] = 10% serum, compared with unsialylated F62 ΔIgtD
[4] = CMP-nonulosonate 20 μg/ml, NHS 3.3% or 10%

Compound | bacterial survival / serum resistance (N. gonorrhoeae F62 ΔIgtD [1]) | serum resistance mediated by CMP-Neu5Ac (N. gonorrhoeae F62 ΔIgtD [1]) | killing of bacteria made serum resistant by CMP-Neu5Ac (N. gonorrhoeae F62 ΔIgtD [1]) | Serum resistance (N. gonorrhoeae F62 ΔIgtD [1]) | complement deposition (C3, C4 and fB) and Ig binding (N. gonorrhoeae F62 ΔIgtD [2]; CMP-nonulosonate 20 μg/ml) | Neu5Ac-mediated decrease in IgG binding and complement deposition (C4, C3, factor Bb) (N. gonorrhoeae F62 ΔIgtD [2]) | C3, C4 and factor B deposition (N. gonorrhoeae F62 ΔIgtD [2]; 3.3% serum) | C3, C4 and factor B deposition (N. gonorrhoeae F62 ΔIgtD [2]; [3]) | IgG binding (N. gonorrhoeae F62 ΔIgtD [2]; [4]) | bacterial survival (N. gonorrhoeae F62 ΔIgtD [1]; CMP-Neu5Ac 20 μg/ml, 32 min exposure, 10% NHS) | resistance to 10% serum (N. gonorrhoeae F62 ΔIgtD [1]; CMP-nonulosonate 3 μM (~2 μg/ml), 10% serum) | IgM binding (N. gonorrhoeae F62 ΔIgtD [2]; [4])
CC(=O)N[C@H]1[C@H]([C@H](O)[C@H](O)CN=[N+]=[N-])OC(OP(=O)(O)OC[C@H]2O[C@@H](n3ccc(N)nc3=O)[C@H](O)[C@@H]2O)(C(=O)O)C[C@@H]1O (stereo partly drawn) [CMP-Neu5Ac9Az, CMP-5-acetamido-9-azido-3,5,9-trideoxy-D-glycero-D-galacto-nonulosonic acid] | did not increase bacterial survival | blocked serum resistance; also recorded: completely blocked | did not induce any killing | none | highest levels of complement deposition and Ig binding | blocked this decrease | – | – | – | – | – | –
CC(=O)N[C@H]1[C@H]([C@H](O)[C@H](O)COC(C)=O)OC(OP(=O)(O)OC[C@H]2O[C@@H](n3ccc(N)nc3=O)[C@H](O)[C@@H]2O)(C(=O)O)C[C@@H]1O (stereo partly drawn) [CMP-Neu5Ac9Ac, CMP-5-acetamido-9-O-acetyl-3,5-dideoxy-D-glycero-D-galacto-nonulosonic acid] | – | – | – | low^C | – | – | low levels | only a modest decline | reduced IgG binding | – | – | –
5,7-diacetamido-3,5,7,9-tetradeoxy-D-glycero-D-galacto-nonulosonic acid [CMP-Leg5Ac7Ac] | did not increase bacterial survival | blocked serum resistance; also recorded: completely blocked | did not induce any killing | none | highest levels of complement deposition and Ig binding | least amount of complement inhibition; also recorded: blocked this decrease | – | – | – | – | – | –
CC(=O)NC1C(O)CC(OP(=O)(O)OCC2OC(n3ccc(N)nc3=O)C(O)C2O)(C(=O)O)OC1C(O)C(O)CO [CMP-Neu5Ac, CMP-5-acetamido-3,5-dideoxy-D-glycero-D-galacto-nonulosonic acid, reference compound] | – | – | – | high^B (>100% survival in 10% serum) | maximal complement inhibition | – | – | – | decreased IgG binding substantially | ~42% | conferred resistance | small but reproducible decrease
COC(CO)C(O)C1OC(OP(=O)(O)OCC2OC(n3ccc(N)nc3=O)C(O)C2O)(C(=O)O)CC(O)C1NC(=O)CO [CMP-Neu5Gc8Me, CMP-5-hydroxyacetamido-8-O-methyl-3,5-dideoxy-D-glycero-D-galacto-nonulosonic acid] | – | – | – | low | – | – | low levels | only a modest decline | reduced IgG binding | – | – | –
